From the supplement of paper PMC10307832

How the values were obtained:
Assay in all cases: relative viability (nuclei count vs DMSO), 5 days (fraction); higher = more cells survive
[1] = compound: COc1cc2nccc(Oc3ccc(NC(=O)C4(C(=O)Nc5ccc(F)cc5)CC4)cc3)c2cc1OC [Cabozantinib] + N=C(N)NC(=N)NCCc1ccccc1 [Phenformin] (partner 250 µM)
Summary of the method: (§1)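 Relative viability divides the nuclei count in treated wells by that in vehicle wells. Lung cancer cell lines were seeded in 1536-well plates, dosed by pin tool the next day, and fixed and stained after 5 days in one step with final 0.05% Triton X-100, 1% formaldehyde and 1 ug/ml Hoechst. Dosing was a single drug or a fixed anchor-drug dose plus five library-drug doses (not always all listed) in √10 steps, and values are medians of duplicate plates imaged at 4×.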

[2] = compound: COc1cc2nccc(Oc3ccc(NC(=O)C4(C(=O)Nc5ccc(F)cc5)CC4)cc3)c2cc1OC [Cabozantinib] + Nc1nc2[nH]cc(CCc3ccc(C(=O)N[C@@H](CCC(=O)O)C(=O)O)cc3)c2c(=O)[nH]1 [Pemetrexed] (partner 0.2 µM)
Summary of the method: as §1

[3] = compound: C1=CC(=CC=C1NC(=S)NNC2=C(C=C(C=C2[N+](=O)[O-])C(F)(F)F)[N+](=O)[O-])F [Kobe2602] + O=C(c1cc(Cc2n[nH]c(=O)c3ccccc23)ccc1F)N1CCN(C(=O)C2CC2)CC1 [Olaparib] (partner 8 µM)
Summary of the method: as §1

[4] = compound: COc1cc2nccc(Oc3ccc(NC(=O)C4(C(=O)Nc5ccc(F)cc5)CC4)cc3)c2cc1OC [Cabozantinib] + O=C(c1cc(Cc2n[nH]c(=O)c3ccccc23)ccc1F)N1CCN(C(=O)C2CC2)CC1 [Olaparib] (partner 8 µM)
Summary of the method: as §1

| Cell Line | relative viability ([1]; first compound 0.02 µM) | relative viability ([1]; first compound 0.06325 µM) | relative viability ([1]; first compound 0.2 µM) | relative viability ([1]; first compound 0.6325 µM) | relative viability ([1]; first compound 2 µM) | relative viability ([2]; first compound 0.02 µM) | relative viability ([2]; first compound 0.06325 µM) | relative viability ([2]; first compound 0.2 µM) | relative viability ([2]; first compound 0.6325 µM) | relative viability ([2]; first compound 2 µM) | relative viability ([3]; first compound 0.2 µM) | relative viability ([3]; first compound 0.6325 µM) | relative viability ([3]; first compound 2 µM) | relative viability ([3]; first compound 6.325 µM) | relative viability ([3]; first compound 20 µM) | relative viability ([4]; first compound 0.02 µM) | relative viability ([4]; first compound 0.06325 µM) | relative viability ([4]; first compound 0.2 µM) | relative viability ([4]; first compound 0.6325 µM) | relative viability ([4]; first compound 2 µM) |
| --- | --- | --- | --- | --- | --- | --- | --- | --- | --- | --- | --- | --- | --- | --- | --- | --- | --- | --- | --- | --- |
| SW 900 | 0.692 | 0.668 | 0.662 | 0.552 | 0.408 | 0.47 | 0.482 | 0.486 | 0.448 | 0.448 | 0.914 | 0.981 | 0.679 | 0.969 | 0.976 | 0.877 | 0.941 | 0.664 | 0.636 | 0.684 |
| NCI-H358 | 0.283 | 0.317 | 0.231 | 0.296 | 0.337 | 0.181 | 0.171 | 0.16 | 0.18 | 0.166 | 0.586 | 0.592 | 0.589 | 0.528 | 0.653 | 0.708 | 0.625 | 0.565 | 0.529 | 0.591 |
| PC-3 [JPC-3] | 0.491 | 0.505 |  | 0.457 | 0.462 | 0.971 | 1.43 |  | 1.07 | 1.2 | 1.1 | 1.22 | 1.13 | 1.19 | 1.13 | 1.23 | 1.31 |  | 1.2 | 1.14 |
| NCI-H1651 | 0.316 | 0.329 | 0.316 | 0.298 | 0.292 | 0.498 | 0.732 | 0.588 | 0.497 | 0.544 | 0.186 | 0.165 | 0.189 | 0.19 | 0.193 | 0.176 | 0.196 | 0.202 | 0.184 | 0.192 |
| HCC-827 | 0.425 | 0.441 |  | 0.417 | 0.381 | 0.266 | 0.251 |  | 0.214 | 0.274 | 0.681 | 0.678 | 0.683 | 0.664 | 0.725 | 0.643 | 0.786 |  | 0.624 | 0.562 |
| HCC-366 | 0.675 | 0.612 | 0.653 | 0.623 | 0.581 | 0.189 | 0.214 | 0.173 | 0.156 | 0.15 | 0.368 | 0.345 | 0.32 | 0.352 | 0.365 | 0.597 | 0.464 | 0.395 | 0.4 | 0.335 |
| HARA | 0.417 | 0.508 | 0.443 | 0.408 | 0.411 | 0.244 | 0.234 |  | 0.279 | 0.226 | 0.868 | 1.03 | 0.914 | 0.958 | 0.78 | 0.794 | 1.07 |  | 0.978 | 0.635 |
| NCI-H520 | 0.608 | 0.598 | 0.65 | 0.672 | 0.432 | 0.625 | 0.747 | 0.667 | 0.63 | 0.552 | 0.333 | 0.38 | 0.381 | 0.353 | 0.333 | 0.369 | 0.341 | 0.386 | 0.42 | 0.228 |
| NCI-H1299 |  |  |  |  |  |  |  |  |  |  | 0.996 | 1.02 | 0.949 | 1.02 | 0.985 | 0.969 | 0.988 | 0.964 | 0.971 | 1.09 |
| SW 1573 | 0.45 | 0.368 | 0.331 | 0.365 | 0.345 | 0.905 | 0.815 | 0.924 | 0.951 | 0.763 | 0.477 | 0.416 | 0.306 | 0.466 | 0.152 | 0.455 | 0.516 | 0.447 | 0.488 | 0.384 |
| CAL-12T | 0.666 | 0.597 | 0.554 | 0.591 | 0.529 | 1.37 | 1.14 | 1.25 | 1.19 | 1.09 | 0.697 | 0.685 | 0.678 | 0.707 | 0.784 | 0.728 | 0.859 | 0.73 | 0.716 | 0.743 |
| COR-L 105 | 0.387 | 0.477 |  | 0.581 | 0.481 | 1.1 | 1.19 | 0.9 | 0.999 | 1.02 | 0.658 | 0.718 | 0.425 | 0.588 | 0.686 | 0.75 | 0.688 | 0.742 | 0.663 | 0.805 |
| NCI-H3122 | 0.45 | 0.423 | 0.374 | 0.333 | 0.324 | 0.212 | 0.203 | 0.195 | 0.199 | 0.209 | 0.551 | 0.602 | 0.621 | 0.56 | 0.619 | 0.636 | 0.655 | 0.617 | 0.527 | 0.633 |
| NCI-H2228 | 0.392 | 0.359 | 0.298 | 0.471 | 0.35 | 0.348 | 0.305 | 0.338 | 0.283 | 0.276 | 0.738 | 0.576 | 0.689 | 0.593 | 0.629 | 0.769 | 0.924 | 0.742 | 0.602 | 0.573 |
| RERF-LC-KJ | 0.442 | 0.404 | 0.44 | 0.418 | 0.413 | 0.471 | 0.463 | 0.402 | 0.347 | 0.463 | 0.936 | 0.957 | 0.9 | 0.525 | 0.282 | 1.06 | 1.05 | 0.96 | 0.824 | 0.921 |
| NCI-H441 | 0.556 | 0.775 | 1.02 | 0.883 | 0.902 | 0.243 | 0.237 | 0.288 | 0.229 | 0.235 | 0.581 | 0.716 | 0.66 | 0.511 | 0.545 | 0.787 | 0.664 | 0.615 | 0.59 | 0.703 |
| A549 | 0.407 | 0.173 | 0.215 | 0.156 | 0.147 |  |  |  |  |  | 0.45 | 0.484 | 0.281 | 0.315 | 0.513 | 0.291 | 0.628 | 0.34 | 0.212 | 0.309 |
